In PubChem BioAssay (NCI):
Values joined by “and” are separate entries in the source; they are usually repeats but may differ in a detail not shown here. Equal values may be shown once.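 Exposure lasted 48 hours, with cells grown in 96-well plates and compounds tested at five concentrations. GI50: concentration for 50% inhibition of growth. TGI: concentration producing complete growth inhibition.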

How the values were obtained:
Assay in all cases: inhibition of tumour cell growth, NCI panel, 48 h
CAKI-1 renal = system: CAKI-1 renal
HCC-2998 colon = system: HCC-2998 colon
HL-60(TB) leukemia = system: HL-60(TB) leukemia
M14 melanoma = system: M14 melanoma
MDA-MB-435 = system: MDA-MB-435
SK-MEL-28 melanoma = system: SK-MEL-28 melanoma
EKVX NSCLC = system: EKVX NSCLC
K-562 leukemia = system: K-562 leukemia
MALME-3M melanoma = system: MALME-3M melanoma
BT-549 breast = system: BT-549 breast

SMILES | GI50 (CAKI-1 renal) [µM] | TGI (CAKI-1 renal) [µM] | GI50 (HCC-2998 colon) [µM] | TGI (HCC-2998 colon) [µM] | GI50 (HL-60(TB) leukemia) [µM] | TGI (HL-60(TB) leukemia) | GI50 (M14 melanoma) [µM] | TGI (M14 melanoma) | GI50 (MDA-MB-435) [µM] | TGI (MDA-MB-435) [µM] | GI50 (SK-MEL-28 melanoma) [µM] | TGI (SK-MEL-28 melanoma) [µM] | TGI (EKVX NSCLC) | TGI (K-562 leukemia) [µM] | TGI (MALME-3M melanoma) [µM] | GI50 (BT-549 breast) [µM] | TGI (BT-549 breast) [µM] | GI50 (EKVX NSCLC) [µM] | GI50 (MALME-3M melanoma) [µM] | GI50 (K-562 leukemia) [µM]
CCCCCOC(=O)Nc1nc(=O)n(C2OC(C)C(O)C2O)cc1F (configuration not stated) | > 10000 | > 10000 | 271 | > 10000 | 5070 | > 10000 µM | > 10000 | > 10000 µM | > 10000 | > 10000 | > 10000 | > 10000 | – | – | – | – | – | – | – | –
COc1cc(C2C(C(=O)NCc3ccccc3)=C(C)NC(C)=C2C(=O)NCc2ccccc2)ccc1O | – | 75.1 | – | 51.6 | – | 66.5 µM | – | > 100 µM | – | – | – | > 100 | > 100 µM | > 100 | > 100 | – | – | – | – | –
Cc1ccc(NC(=S)NNC(=S)Nc2ccc(C)cc2)cc1 | 3.66 | > 100 | 15.5 | > 100 | – | – | 3.54 | > 100 µM | 2.5 | > 100 | 8.39 | > 100 | > 100 µM | – | > 100 | > 100 | > 100 | 17.9 | 7.07 | –
O=C(c1ccccc1)n1cc(/C=C/[N+](=O)[O-])c2ccccc21 | – | > 100 | – | – | – | 13.3 µM | – | 41 µM | – | – | – | 33.6 | > 100 µM | 47.7 | 96.7 | – | – | – | – | –
CC[O-].CC[O-].O=C1C=C([O-])C(=O)c2ccccc21.O=C1C=C([O-])C(=O)c2ccccc21.[Ti+4] | > 100 | > 100 | 46.1 | > 100 | 7.22 | > 100 µM | 8.52 | > 100 µM | – | – | > 100 | > 100 | > 100 µM | > 100 | > 100 | – | – | > 100 | 9.89 | 69.6
CCCCCCCCCCCCCCCC(=O)NS(=O)(=O)OC[C@H]1O[C@@H](n2cnc3c(N)ncnc32)[C@H](O)[C@@H]1O | – | – | < 0.0192 | < 0.038 | 0.454 | 4.72 µM | 0.632 | 2.17 µM | 0.21 | 0.551 | – | 1.66 | 1.74 µM | 10 | 2.22 | – | – | 0.271 | 0.69 | 1.65
CCN(N=O)C1C2(CCCC2)NC(=O)C12CCCC2 (configuration not stated) | – | – | – | > 100 | – | > 100 µM | – | > 100 µM | – | – | – | > 100 | > 100 µM | > 100 | > 100 | – | – | – | – | –
COc1ccc(OC(=O)N2C/C(=C\c3ccccc3)C(=O)/C(=C/c3ccccc3)C2)cc1 | – | – | – | 8.76 | – | 14 µM | – | 7.97 µM | – | – | – | 4.97 | 58.3 µM | 7.66 | 27.8 | – | 4.67 | – | – | –
CCCCCc1cc(/C=C2/N=C(c3ccc[nH]3)C=C2OC)[nH]c1C | – | 0.0168 | – | 1.02 | – | – | – | < 0.034 µM | – | 0.187 | – | 0.805 | 1.4 µM | 0.259 | 0.275 | – | 0.292 | – | – | –
COc1cc(/C=C2\CC3C4CCC5=CC(=O)CC[C@]5(C)C4CC[C@]3(C)C2=O)ccc1OCCN1CCCC1 (some centres not stated) | 2.89 | 10.5 | 1.85 | 3.89 | – | – | 1.67 | 3.39 µM | 2.15 | 4.86 | 2.7 | 8.11 | 17.3 µM | 1.53 | 1.93 | 8.44 | 23.3 | 3.98 | 0.645 | 0.489
C#CN1C(=O)c2c(c(-c3ccccc3)c(-c3ccc(Oc4ccc(-c5c(-c6ccccc6)c6c(c(-c7ccccc7)c5-c5ccccc5)C(=O)N(C#C)C6=O)cc4)cc3)c(-c3ccccc3)c2-c2ccccc2)C1=O | – | – | – | > 100 | – | > 100 µM | – | > 100 µM | – | – | – | > 100 | > 100 µM | > 100 | > 100 | – | – | – | – | –
O=C(O)C1=Cc2cccc3cccc(c23)C1=O | – | > 100 | – | > 100 | – | > 100 µM | – | > 100 µM | – | – | – | > 100 | > 100 µM | > 100 | > 100 | – | – | – | – | –
CCCCCCCCCCCCC(O)C1CCC(C(O)CCCCC(O)CCCCCC2CC(CC(C)=O)C(=O)O2)O1 (configuration not stated) | 2.29 | 22.3 | – | 16.3 | 1.29 | 4.02 µM and 2.75 µM | 1.66 | 3.33 µM and 22.2 µM | – | – | 2.85 | 14 | 4.11 µM and 20.8 µM | 7.7 | 16.5 | – | 5.6 | 1.08 | – | 1.35
CCOC(=O)CCc1c(C)c2c(OC)cc(OC)cc2oc1=O | – | > 100 | – | > 100 | – | > 100 µM | – | > 100 µM | – | – | – | > 100 | > 100 µM | – | > 100 | – | – | – | – | –
OC1(C(Sc2ccccc2)Sc2ccccc2)CCCCCC1 | – | 74.9 | – | – | – | 50.8 µM | – | 49.2 µM | – | – | – | > 100 | 63.5 µM | – | – | – | – | – | – | –
COc1ccccc1/C=C1\CCC(Cc2ccccc2)(CN(C)C)C1=O (configuration not stated) | – | 51.8 | – | 24.3 | – | 15.1 µM | – | 34.9 µM | – | – | – | > 100 | 34.7 µM | > 34.5 | > 100 | – | 40.5 | – | – | –

SMILES | GI50 (CAKI-1 renal) [µM] | TGI (CAKI-1 renal) [µM] | GI50 (HCC-2998 colon) [µM] | TGI (HCC-2998 colon) [µM] | GI50 (HL-60(TB) leukemia) [µM] | TGI (HL-60(TB) leukemia) | GI50 (M14 melanoma) [µM] | TGI (M14 melanoma) | GI50 (MDA-MB-435) [µM] | TGI (MDA-MB-435) [µM] | GI50 (SK-MEL-28 melanoma) [µM] | TGI (SK-MEL-28 melanoma) [µM] | TGI (EKVX NSCLC) | TGI (K-562 leukemia) [µM] | TGI (MALME-3M melanoma) [µM] | GI50 (BT-549 breast) [µM] | TGI (BT-549 breast) [µM] | GI50 (EKVX NSCLC) [µM] | GI50 (MALME-3M melanoma) [µM] | GI50 (K-562 leukemia) [µM]
Cc1ccc2ncnc(N(C)C3CCCCC3)c2c1 | 13.9 | 39 | 28.8 | 70.2 | – | – | 24.3 | 63.4 µM | 23 | 68.2 | 40 | > 100 | – | 94.4 | > 100 | – | – | – | 56 | 13.5
NNC(=O)/C(NC(=O)c1ccccc1)=C(\N)c1cccc([N+](=O)[O-])c1 | – | > 100 | – | > 100 | – | > 100 µM | – | > 100 µM | – | – | – | > 100 | > 100 µM | > 100 | > 100 | – | – | – | – | –
CCOc1cc(Cl)c(C(C)NC(=O)c2cccc(OC)c2)cc1OCC (configuration not stated) | 11.1 | > 100 | 28.8 | > 100 | 3.96 | > 100 µM | 5.39 | > 100 µM | – | – | 16.5 | > 100 | – | > 100 | > 100 | 13.4 | > 100 | – | 9.42 | 3.9
O=C(Cc1cc(O)ccc1O)NO | 26.9 | 81.9 | > 100 | > 100 | – | – | > 100 | > 100 µM | 15.4 | 31.2 | – | – | > 100 µM | 45.8 | > 100 | 85.7 | > 100 | > 100 | 29.1 | 21.2
O=C(O)c1ccc(CSc2nc3ccccc3[nH]2)cc1 | > 100 | > 100 | > 100 | > 100 | > 100 | > 100 µM | > 100 | > 100 µM | > 100 | > 100 | > 100 | > 100 | > 100 µM | > 100 | > 100 | – | – | > 100 | > 100 | > 100
O=C(CCN1CCCCC1)c1csc2ccccc12 | – | > 100 | – | – | – | – | – | > 100 µM | – | > 100 | – | > 100 | > 100 µM | > 100 | > 100 | – | > 100 | – | – | –
Cc1ccccc1N(CCC#N)C1=NN(C(=O)CC(=O)Nc2ccc(Cl)cc2)C(c2ccccc2)C1 (configuration not stated) | – | – | – | > 100 | – | > 100 µM | – | > 100 µM | – | – | – | > 100 | > 100 µM | > 100 | > 100 | – | – | – | – | –
O=c1cccccc1[O-].O=c1cccccc1[O-].O=c1cccccc1[O-].[Nd+3] | – | > 100 | – | > 100 | – | > 100 µM | – | 87 µM | – | – | – | – | > 100 µM | > 100 | > 100 | – | – | – | – | –
CC(=O)OCc1nnn2c1C(OC(C)=O)CC2 (configuration not stated) | – | > 100 | – | > 100 | – | – | – | > 100 µM | – | – | – | > 100 | > 100 µM | > 100 | > 100 | – | – | – | – | –
CNC(=O)/C=C/C1=CN2C(=O)c3ccc(C)c(O)c3NC(OC)C2C1 (configuration not stated) | – | 2.63 | – | < 0.0173 | – | 0.865 µM | – | 0.0191 µM | – | < 0.0176 | – | < 0.0131 | < 0.0344 µM | > 100 | 0.0448 | – | – | – | – | –
C[C@@H](NC1CCCC[C@@H]1O)c1ccccc1 (some centres not stated) | – | > 100 | – | > 100 | – | > 100 µM | – | > 100 µM | – | – | – | > 100 | > 100 µM | > 100 | > 100 | – | – | – | – | –
OC1CC(O)O[C@H](c2ccccc2)C1 (some centres not stated) | – | > 100 | – | > 100 | – | > 100 µM | – | > 100 µM | – | – | – | > 100 | > 100 µM | > 100 | > 100 | – | – | – | – | –
Cc1[nH]c(=O)n2c(C)nnc2c1C(=O)O | – | > 100 | – | – | – | > 100 µM | – | > 100 µM | – | – | – | > 100 | > 100 µM | > 100 | > 100 | – | – | – | – | –
CC(=O)OC(C(=O)[O][Ge]([CH3])([CH3])[CH3])c1ccccc1 (configuration not stated) | > 100 | > 100 | > 100 | > 100 | – | > 100 µM | > 100 | > 100 µM | – | – | > 100 | > 100 | > 100 µM | > 100 | > 100 | – | – | > 100 | > 100 | > 100
CC1=C2CC[C@@]3(C)C(=CCC3O)C2(C)CCC1=O (some centres not stated) | – | > 100 | – | > 100 | – | > 100 µM | – | > 100 µM | – | – | – | > 100 | > 100 µM | – | > 100 | – | – | – | – | –
